Laboratory results as given in the supplement of paper PMC10307832.

How the values were obtained:
Assay in all cases: relative viability (nuclei count vs DMSO), 5 days (fraction); higher = more cells survive
Obatoclax + Olaparib = compound: COC1=CC(c2cc3ccccc3[nH]2)=N/C1=C\c1[nH]c(C)cc1C [Obatoclax] + O=C(c1cc(Cc2n[nH]c(=O)c3ccccc23)ccc1F)N1CCN(C(=O)C2CC2)CC1 [Olaparib] (partner 8 µM)
How it was run: (§1)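 Relative viability divides the nuclei count in treated wells by that in vehicle wells. Lung cancer cell lines were seeded in 1536-well plates, dosed by pin tool the next day, and fixed and stained after 5 days in one step with final 0.05% Triton X-100, 1% formaldehyde and 1 ug/ml Hoechst. Dosing was a single drug or a fixed anchor-drug dose plus five library-drug doses (not always all listed) in √10 steps, and values are medians of duplicate plates imaged at 4×.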

[1] = compound: CC1=CC(=NN1)NC2=CC(=NC(=N2)/C=C/C3=CC=CC=C3)N4CCN(CC4)C + COc1cc2c(Oc3ccc(NC(=O)C4(C(=O)Nc5ccc(F)cc5)CC4)cc3F)ccnc2cc1OCCCN1CCOCC1 [Foretinib] (partner 0.25 µM)
How it was run: as §1

Obatoclax + Decitabine = compound: COC1=CC(c2cc3ccccc3[nH]2)=N/C1=C\c1[nH]c(C)cc1C [Obatoclax] + Nc1ncn([C@H]2C[C@H](O)[C@@H](CO)O2)c(=O)n1 [Decitabine] (partner 2 µM)
How it was run: as §1

[2] = compound: CC1=CC(=NN1)NC2=CC(=NC(=N2)/C=C/C3=CC=CC=C3)N4CCN(CC4)C + CC1(C)CCC(c2ccc(Cl)cc2)=C(CN2CCN(c3ccc(C(=O)NS(=O)(=O)c4ccc(N[C@H](CCN5CCOCC5)CSc5ccccc5)c(S(=O)(=O)C(F)(F)F)c4)cc3)CC2)C1 [Navitoclax] (partner 0.5 µM)
How it was run: as §1

Cell Line | relative viability (Obatoclax + Olaparib; first compound 0.01 µM) | relative viability (Obatoclax + Olaparib; first compound 0.03162 µM) | relative viability (Obatoclax + Olaparib; first compound 0.1 µM) | relative viability (Obatoclax + Olaparib; first compound 0.3162 µM) | relative viability (Obatoclax + Olaparib; first compound 1 µM) | relative viability ([1]; first compound 0.08 µM) | relative viability ([1]; first compound 0.253 µM) | relative viability ([1]; first compound 0.8 µM) | relative viability ([1]; first compound 2.53 µM) | relative viability ([1]; first compound 8 µM) | relative viability (Obatoclax + Decitabine; first compound 0.01 µM) | relative viability (Obatoclax + Decitabine; first compound 0.03162 µM) | relative viability (Obatoclax + Decitabine; first compound 0.1 µM) | relative viability (Obatoclax + Decitabine; first compound 0.3162 µM) | relative viability (Obatoclax + Decitabine; first compound 1 µM) | relative viability ([2]; first compound 0.08 µM) | relative viability ([2]; first compound 0.253 µM) | relative viability ([2]; first compound 0.8 µM) | relative viability ([2]; first compound 2.53 µM) | relative viability ([2]; first compound 8 µM)
ChaGo-K-1 | 0.4 | 0.439 | 0.391 | 0.382 | 0.41 | 0.952 | 0.915 | 0.79 | 0.353 | 0.186 | 0.497 | 0.476 | 0.506 | 0.509 | 0.516 | 0.893 | 1.12 | 1.24 | 0.298 | 0.272
BEN | 1.03 | 1.04 | 0.864 | 0.914 | 0.942 | 0.639 | 0.675 | 0.715 | 0.377 | 0.182 | 0.756 | 0.553 | 0.393 | 0.624 | 0.659 | 0.0566 | 0.0746 | 0.188 | 0.0803 | 0.0617
NCI-H2347 | 0.56 | 0.572 | 0.528 | 0.524 | 0.476 | 0.554 | 1.44 | 1.21 | 0.857 | 0.325 | 0.607 | 0.561 | 0.579 | 0.563 | 0.653 | 0.762 | 0.871 | 0.912 | 0.496 | 0.361
LOU-NH91 | 0.921 | 0.919 | 0.834 | 0.857 | 0.398 | 0.94 | 0.976 | 0.912 | 0.848 | 0.507 | 0.743 | 0.833 | 0.728 | 0.758 | 0.606 | 0.706 | 0.729 | 0.697 | 0.387 | 0.201
HCC-366 | 0.322 | 0.366 | 0.316 | 0.334 | 0.272 | 0.942 | 1.04 | 0.472 | 0.0589 | 0.0265 | 0.318 | 0.271 | 0.306 | 0.347 | 0.274 | 1.07 | 1.19 | 0.989 | 0.371 | 0.0097
NCI-H2405 | 0.911 | 0.981 | – | 0.935 | 0.734 | 1.05 | 1.07 | 1.07 | 0.878 | 0.229 | 0.769 | 0.717 | – | 0.762 | 0.63 | 0.884 | 0.688 | 1.13 | 0.511 | 0.0864
201T | 0.873 | 0.782 | 0.838 | 0.823 | 0.831 | 1.13 | 1.32 | 1.04 | 1.02 | 0.206 | 0.814 | 0.731 | 0.868 | 0.857 | 0.92 | 1.2 | 1.21 | 1.19 | 1.13 | 1.12
NCI-H1944 | 0.412 | 0.427 | 0.443 | 0.418 | 0.392 | 0.916 | 0.949 | 0.853 | 0.535 | 0.216 | 0.429 | 0.42 | 0.464 | 0.431 | 0.388 | 1.04 | 1.08 | 1.03 | 0.866 | 0.266
SK-MES-1 | 0.641 | 0.655 | 0.495 | 0.172 | 0.17 | 0.896 | 0.858 | 0.864 | 0.653 | 0.352 | 0.366 | 0.374 | 0.468 | 0.233 | 0.202 | 1.11 | 1.21 | 1.15 | 0.479 | 0.116
NCI-H2087 | 0.588 | 0.596 | 0.436 | 0.451 | 0.226 | 1.05 | 1.14 | 1.02 | 0.336 | 0.111 | 0.215 | 0.254 | 0.34 | 0.135 | 0.142 | 0.974 | 0.923 | 1.11 | 0.247 | 0.122
COR-L 105 | 0.727 | 0.76 | 0.737 | 0.672 | 0.457 | 0.841 | 1.47 | 1.02 | 0.334 | 0.215 | 0.68 | 0.665 | 0.634 | 0.525 | 0.407 | 0.739 | 0.976 | 0.727 | 0.4 | 0.206
LCLC-97TM1 | 0.273 | 0.38 | 0.389 | 0.293 | 0.348 | 0.911 | 0.954 | 0.961 | 0.296 | 0.132 | 0.216 | 0.197 | 0.196 | 0.214 | 0.192 | 0.492 | 0.781 | 0.294 | 0.201 | 0.106
NCI-H520 | 0.301 | 0.323 | 0.372 | 0.289 | 0.208 | 0.669 | 0.843 | 0.788 | 0.534 | 0.185 | 0.441 | 0.309 | 0.631 | 0.507 | 0.292 | 0.985 | 1.12 | 0.889 | 0.198 | 0.127
NCI-H1993 | 0.95 | 1.15 | 0.984 | 1.01 | 1.11 | 0.754 | 0.911 | 0.763 | 0.594 | 0.447 | 0.659 | 0.545 | 0.618 | 0.611 | 0.612 | 0.94 | – | 0.78 | 0.576 | 0.489
NCI-H1437 | 0.634 | 0.623 | 0.626 | 0.623 | 0.533 | 1.19 | 1.31 | 1.3 | 1.25 | 0.474 | 0.626 | 0.426 | 0.601 | 0.537 | 0.43 | 1.06 | 1.12 | 1.03 | 0.816 | 0.175
LC-2-ad | 0.693 | 0.676 | 0.732 | 0.723 | 0.648 | 0.875 | 0.942 | 0.753 | 0.413 | 0.204 | 0.706 | 0.784 | 0.82 | 0.742 | 0.847 | 0.432 | 0.332 | 0.224 | 0.0861 | 0.0584
